Data set [1] concerns spleen cells. The experiment in a line: Plaque Forming Cell Assay (inhibition rate of the antibody production). The class given is cell-based, Balb/c strain mice. The note with it: Mus musculus; Concentration 10^-6 M; read-out: Inhibition rate (antibody production, PFC). The method, then:
Plaque Forming Cell Assay
The plaque forming cell assay was carried out by the following manner with reference to the method of Jerne et al. [Science, 140, 405 (1963)] and the method of Yamamoto et al. [Drugs Experimental Clinical Research, III(1), 5 (1982)].
Male Balb/c strain mice (7-week-old) (Charles River Co.) were sensitized with 1×10^8 sheep erythrocytes (product of Biotest Research Institute) administered via the caudal vein, and the spleens were extirpated 6 or 7 days after the sensitization. The extirpated spleens were immersed in Hanks' solution (Nissui Seiyaku) to make a cell suspension, which was then filtered, followed by centrifugal separation at 1200 rpm for 5 minutes. After centrifugal separation, the supernatant was discarded and the precipitate was treated with Tris.NH4 Cl solution to remove the erythrocytes, and then washed three times with Hanks' solution. After discarding the supernatant, the cells were suspended in an RPMI-1640 medium (Nissui Seiyaku) containing 10% bovine fetal serum (Gibco Co.), 50 μg/ml of streptomycin (Meiji Seika), […] of penicillin (Meiji Seika) and 2-mercaptoethanol (5×10^-5 M). In each well of a micro culture plate (NUNK Co., Ltd., 24 wells) were put 2 ml of the mixture of the cell suspension containing 1×10^7 of spleen cells, 5×10^6 sheep erythrocites and a test compound solution (10^-6 M) obtained by diluting the test compound dissolved in dimethylsulfoxide (10^-2 M) with the above mentioned RPMI-1640, and the cells were cultured at 37° C. for 5 days.
After the completion of the culturing, the cells were subjected to centrifugal separation at 2000 rpm for 5 minutes, and the resulting supernatant was removed. The precipitate was suspended in 1 ml of Hanks' solution, again subjected to centrifugal separation, suspended in 1 ml of Hanks' solution, and then, 50 μl of the suspension and 50 μl of sheep erythrocytes were added to 400 μl of 0.25% agarose/Hanks' solution heated to 50° C. in advance, and the mixture was scattered on a glass slide, placed on a plaque assay plate, and together with guinea pig complement (Cedarlene Institute) diluted 40-fold with a phosphate buffer solution, incubated at 37° C. for 1 to 2 hours. The number of the appearing direct plaque cells (direct PFC count) in suspension was counted.
The inhibition rate of the antibody production of the test compound was determined by the following equation. [formula]
The compound used for comparison was 5,6-dihydro-9-fluoro-3-phenylbenz[c]acridine-7-carboxylic acid [Japanese Published Unexamined Patent Application No. 233661/90, hereinafter referred to as Compound (A)] represented by formula (A). [drawing 62]
PFC count in Control means PFC count in the absence of the test compound (dimethylsulfoxide alone).

Data set [2] relates to spleen cells. The data set is described as above. In kind it is cell-based, Balb/c strain mice. To be noted: Mus musculus, read-out: Inhibition rate (antibody production, PFC); for inhibition at 10 µM: Concentration 10^-5 M; for inhibition at 0.1 µM: Concentration 10^-7 M; for inhibition at 0.01 µM: Concentration 10^-8 M.
The subject of data set [3] is dd mice. Nature of the data set: Acute toxicity. In kind it is in vivo. The note with it: mortality after 7 days. Here is the method:
The test compound was administered to dd mice having a weight of 20 to 25 g per os (p.o.) and intraperitoneally (i.p.). MLD (minimum lethal dose) was evaluated by measuring the mortality after 7 days from the day of administration.

Usually inhibition stands for the share of the control response that was lost under treatment.

Take `O=C(O)c1c2c(nc3ccc(F)cc13)-c1ccc(-c3ccccc3)cc1CC2` [Compound A1, 5,6-dihydro-9-fluoro-3-phenylbenz[c]acridine-7-carboxylic acid, reference compound]: in data set [1], the inhibition at 1 µM stood at 45.9%. Moreover, the inhibition at 10 µM in data set [2] came to 78.6%.
With `O=C(O)c1c2c(nc3ccc(F)cc13)-c1cc(F)c(-c3ccccc3F)cc1CCC2` [Compound 13, 2,10-Difluoro-6,7-dihydro-3-(2-fluorophenyl)-5H-benzo[6,7]cyclohepta[1,2-b]quinoline-8-carboxylic acid], in data set [1], the inhibition at 1 µM stood at 95.7%. Besides, in data set [2], the inhibition at 10 µM came out at 95.2% and the inhibition at 0.1 µM was determined as 82.4%.
`O=C(O)c1c2c(nc3ccc(F)cc13)-c1ccc(-c3cccs3)cc1CC2` [Compound 4, 5,6-Dihydro-9-fluoro-3-(2-thienyl)benz[c]acridine-7-carboxylic acid]: in data set [1], the inhibition at 1 µM worked out at 99.2%. Moreover, the “MLD (minimum lethal dose)” value in data set [3] (i.p.) was greater than 100; in data set [3] (p.o.) it was greater than 300. Also, in data set [2], the inhibition at 10 µM was determined as 99.8%. In addition, the inhibition at 0.1 µM in data set [2] came to 88.4%.
In the case of `O=C(O)c1c2c(nc3ccc(F)cc13)-c1cc(F)c(-c3ccccc3)cc1CC2` [Compound 16, 2,9-Difluoro-5,6-dihydro-3-phenylbenz[c]acridine-7-carboxylic acid], in data set [1], the inhibition at 1 µM amounted to 94.1%. Besides, in data set [2], the inhibition at 0.1 µM came to 88.5% and the inhibition at 0.01 µM stood at 56.8%.
As for `O=C(O)c1c2c(nc3ccc(F)cc13)-c1ccc(-c3ccccc3)cc1CCC2` [Compound 46, 6,7-Dihydro-10-fluoro-3-phenyl-5H-benzo[6,7]cyclohepta[1,2-b]quinoline-8-carboxylic acid], the inhibition at 1 µM in data set [1] turned out to be 84.8%. In addition, in data set [2], the inhibition at 10 µM was found to be 94.9% and the inhibition at 0.1 µM was 81.4%.
Take `O=C(O)c1c2c(nc3ccc(F)cc13)-c1ccc(-c3ccc(F)cc3F)cc1CC2` [Compound 2, 3-(2,4-Difluorophenyl)-5,6-dihydro-9-fluorobenz [c]acridine-7-carboxylic acid]: the inhibition at 1 µM in data set [1] was determined as 96.3%. Moreover, in data set [2], the inhibition at 10 µM stood at 98% and the inhibition at 0.1 µM stood at 86.7%.
In the case of `O=C(O)c1c2c(nc3ccc(F)cc13)-c1cc(F)c(-c3ccccc3F)cc1CC2` [Compound 17, 2,9-Difluoro-5,6-dihydro-3-(2-fluorophenyl)benz[c]acridine-7-carboxylic acid], the inhibition at 1 µM in data set [1] was 91%. For the same compound, in data set [2], the inhibition at 0.1 µM came out at 82.5% and the inhibition at 0.01 µM was found to be 59.8%.
In the case of `O=C(O)c1c2c(nc3ccc(F)cc13)-c1ccc(-c3ccc(F)cc3)cc1CC2` [Compound 1, 5,6-Dihydro-9-fluoro-3-(4-fluorophenyl)benz[c]acridine-7-carboxylic acid], the inhibition at 1 µM in data set [1] was determined as 93.5%. Further, in data set [2], the inhibition at 10 µM was 98.1% and the inhibition at 0.1 µM came out at 69.2%.
Consider `O=C(O)c1c2c(nc3ccc(F)cc13)-c1ccc(-c3c(F)cccc3F)cc1CC2` [Compound 3, 3-(2,6-Difluorophenyl)-5,6-dihydro-9-fluorobenz[c]acridine-7-carboxylic acid], for which the inhibition at 1 µM in data set [1] was 99.4%. For the same compound, in data set [3] (i.p.), the “MLD (minimum lethal dose)” value is greater than 100. Moreover, the “MLD (minimum lethal dose)” value in data set [3] (p.o.) is listed as greater than 300. For the same compound, in data set [2], the inhibition at 10 µM was 99.7% and the inhibition at 0.1 µM amounted to 68.9%.
For `O=C(O)c1c2c(nc3ccc(F)cc13)-c1cc(F)c(-c3ccccc3)cc1CCC2` [Compound 28, 2,10-Difluoro-6,7-dihydro-3-phenyl-5H-benzo[6,7]cyclohepta[1,2-b]quinoline-8-carboxylic acid], the inhibition at 1 µM in data set [1] came out at 93.6%. In addition, the “MLD (minimum lethal dose)” value in data set [3] (i.p.) is greater than 100. Further, the “MLD (minimum lethal dose)” value in data set [3] (p.o.) is greater than 100. Besides, in data set [2], the inhibition at 0.1 µM stood at 90.1% and the inhibition at 0.01 µM came to 73.6%.

The record behind these values is patent US5646283A, “Tetracyclic compound” (Kyowa Hakko Kogyo Co., Ltd., priority 1993, dated 1997).
